This assay has as its target T1, human mAChR M1 (Homo sapiens, UniProt P11229).
T1 sequence (P11229 1-460): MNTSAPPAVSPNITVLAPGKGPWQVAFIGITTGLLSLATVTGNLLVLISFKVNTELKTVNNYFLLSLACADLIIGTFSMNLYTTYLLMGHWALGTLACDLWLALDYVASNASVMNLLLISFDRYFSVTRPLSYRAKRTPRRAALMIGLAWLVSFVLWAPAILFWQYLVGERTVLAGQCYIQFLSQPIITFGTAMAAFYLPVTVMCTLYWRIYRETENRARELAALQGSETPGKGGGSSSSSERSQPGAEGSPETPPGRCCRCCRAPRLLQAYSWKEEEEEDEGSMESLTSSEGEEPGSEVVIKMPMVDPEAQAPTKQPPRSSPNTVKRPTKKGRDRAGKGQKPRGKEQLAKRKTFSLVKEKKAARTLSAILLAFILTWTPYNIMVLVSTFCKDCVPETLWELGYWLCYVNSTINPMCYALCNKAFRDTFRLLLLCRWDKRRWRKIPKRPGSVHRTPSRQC
The assay can be described thus: mAChR M1 cell-based functional assay (calcium mobilization, PAM mode). Conditions: CHO-K1 cells stably expressing hM1, calcium flux (Fluo-4); for EC50: concentration-dependent increase in the EC20 acetylcholine response; for Emax: potentiation of EC20 acetylcholine response. From the text:
Chinese hamster ovary (CHO-K1) cells stably expressing rat (r)M1 were purchased from the American Type Culture Collection and cultured according to their indicated protocol. CHO cells stably expressing human (h)M2, hM3, and hM5 were described previously (Levey, et al., 1991); hM1 and hM4 cDNAs were purchased from Missouri S&T cDNA Resource; rM4 cDNA was provided by T. I. Bonner (National Institutes of Health, Bethesda, MD). rM2 and rM3 were cloned from a rat brain cDNA library and sequence verified. hM1, rM2, rM3, hM4, and rM4 cDNAs were used to stably transfect CHO-K1 cells purchased from the American Type Culture Collection using Lipofectamine2000. To make stable rM2, hM2, rM3, hM4, and rM4 cell lines for use in calcium mobilization assays, these cells also were stably transfected with a chimeric G-protein (Gqi5) (provided by B. R. Conklin, University of California, San Francisco) using Lipofectamine 2000. rM1, hM1, rM3, hM3, rM5, and hM5 cells were grown in Ham's F-12 medium containing 10% heat-inactivated fetal bovine serum (FBS), 20 mM HEPES, and 50 μg/mL G418 sulfate. rM2-Gqi5, hM2-Gqi5, and hM4-Gqi5 cells were grown in the same medium also containing 500 μg/mL Hygromycin B. Stable rM4-Gqi5 cells were grown in DMEM containing 10% heat-inactivated FBS, 20 mM HEPES, 400 μg/mL G418 sulfate, and 500 μg/mL Hygromycin B.
For high throughput measurement of agonist-evoked increases in intracellular calcium, CHO-K1 cells stably expressing muscarinic receptors were plated in growth medium lacking G418 and hygromycin at 15,000 cells/20 μL/well in Greiner 384-well black-walled, tissue culture (TC)-treated, clear-bottom plates (VWR). Cells were incubated overnight at 37° C. and 5% CO2. The next day, cells were washed using an ELX 405 (BioTek) with four washes (80 μL) of assay buffer then aspirated to 20 μL. Next, 20 μL of 16 μM Fluo-4/acetoxymethyl ester (Invitrogen, Carlsbad, CA) prepared as a 2.3 mM stock in DMSO and mixed in a 1:1 ratio with 10% (w/v) Pluronic F-127 and diluted in assay buffer was added to the wells and the cell plates were incubated for 50 min at 37° C. and 5% CO2. Dye was removed by washing with the ELX 405 (four […], washes of assay buffer) then aspirated to 20 μL. Compound master plates were formatted in an 11 point CRC format (1:3 dilutions) in 100% DMSO with a starting concentration of 10 mM using the BRAVO liquid handler (Agilent). Test compound CRCs were then transferred to daughter plates (240 nL) using the Echo acoustic plate reformatter (Labcyte, Sunnyvale, CA) and then diluted into assay buffer (40 μL) to a 2× stock using a Thermo Fisher Combi (Thermo Fisher Scientific, Waltham, MA).
Calcium flux was measured using the Functional Drug Screening System (FDSS) 6000 (Hamamatsu Corporation, Tokyo, Japan) as an increase in the fluorescent static ratio. Compounds were applied to cells (20 μL, 2×) using the automated system of the FDSS 6000 at 4 s into the 300 s protocol and the data were collected at 1 Hz. At 144 s into the 300 s protocol, 10 μL of an EC20 concentration of the muscarinic receptor agonist acetylcholine was added (5×), followed by the addition of 12 μL an EC80 concentration of acetylcholine at the 230 s time point (5×). Agonist activity was analyzed as a concentration-dependent increase in calcium mobilization upon compound addition. Emax values for agonist activity are expressed relative to the maximum for acetylcholine. Positive allosteric modulator activity was analyzed as a concentration-dependent increase in the EC20 acetylcholine response. Antagonist activity was analyzed as a concentration-dependent decrease in the EC80 acetylcholine response. Concentration-response curves were generated using a four-parameter logistical equation in XLfit curve fitting software (IDBS, Bridgewater, NJ) for Excel (Microsoft, Redmond, WA) or Prism (GraphPad Software, Inc., San Diego, CA). […]
A general note: Calcium assays in cells follow changes in intracellular calcium, usually with a dye or a luminescent sensor.

Turning to `O=C(N[C@H]1CCCCC[C@@H]1O)c1cc(Cc2ccc(-n3cccn3)cc2)cc2c1OCO2` [Compound 6, N-[(1S,2S)-2-hydroxycycloheptyl]-6-[(4-pyrazol-1-ylphenyl)methyl]-1,3-benzodioxole-4-carboxamide], the EC50 came out at 1040 nM and the Emax is 76%.
With `Cc1c(Cc2ccc(-n3cccn3)cc2)cc(C(=O)N[C@H]2CCOC[C@@H]2O)c2c1OCO2` [Compound 18, N-[(3R,4S)-3-hydroxytetrahydropyran-4-yl]-7-methyl-6-[(4-pyrazol-1-ylphenyl)methyl]-1,3-benzodioxole-4-carboxamide], the EC50 came to 260 nM and the Emax amounted to 75%.
Taken in the same sequence, the figures for `[2H]C1([2H])Oc2c(C(=O)N[C@H]3CCC[C@@H]3O)cc(Cc3ccc(-n4cccn4)cc3)c(C)c2O1` [Compound 24, 6-(4-(1H-pyrazol-1-yl)benzyl)-N-((1S,2S)-2-hydroxycyclopentyl)-7-methylbenzo[d][1,3]dioxole-2,2-d2-4-carboxamide] were 1000 nM and 70%.
The corresponding values for `Cn1ccc(-c2ccc(Cc3cc4c(c(C(=O)N[C@H]5CCCCC[C@@H]5O)c3)OCO4)cn2)n1` [Compound 10, N-[(1S,2S)-2-hydroxycycloheptyl]-6-[[6-(1-methylpyrazol-3-yl)-3-pyridyl]methyl]-1,3-benzodioxole-4-carboxamide] are 1190 nM and 74%.
The corresponding values for `Cc1c(Cc2ccc(-n3cccn3)cc2)cc(C(=O)N[C@H]2CCCC[C@@H]2O)c2c1OCO2` [Compound 19, N-[(1S,2S)-2-hydroxycyclohexyl]-7-methyl-6-[(4-pyrazol-1-ylphenyl)methyl]-1,3-benzodioxole-4-carboxamide] are 420 nM and 78%.

What is called EC50 is the concentration giving half of the maximal effect. As a reminder, the Emax is the size of the effect at its maximum, as opposed to the concentration needed.
